Molecules are shown by their SMILES. A value given as a limit tells only on which side of the number the result lay.

The target of data set [1] is T1, FXR (Homo sapiens, UniProt Q96RI1).
T1 construct: 5 μL of 20 nM FXR-LBD Complete Coregulator buffer G; purchased ThermoFisher PV4833
T1 sequence (Q96RI1 262-486 limits assumed): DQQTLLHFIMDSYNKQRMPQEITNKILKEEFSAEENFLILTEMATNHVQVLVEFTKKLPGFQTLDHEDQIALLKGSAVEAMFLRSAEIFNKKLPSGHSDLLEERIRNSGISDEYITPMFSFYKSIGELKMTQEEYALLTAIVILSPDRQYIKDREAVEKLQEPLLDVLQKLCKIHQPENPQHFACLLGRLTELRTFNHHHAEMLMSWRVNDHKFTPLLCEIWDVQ
Briefly: FXR antagonist screening by TR-FRET (LanthaScreen TR-FRET FXR co-activation assay kit). Type of data set: biochemical. Particulars: Table 1.1, FXR antagonistic activity; TR-FRET with CDCA; geometric means of at least two independent runs. The procedure, abridged: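 FXR-LBD (20 nM working solution) mixed with compound, CDCA (200 μM working solution) as agonist, Fluorescein-SRC2-2 and Tb-anti-GST antibody in Coregulator buffer G; 10 h at room temperature. Coactivator recruitment read by TR-FRET, triplicate wells.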
On the technique in general: Time-resolved FRET reads energy transfer from a long-lived donor to a nearby acceptor.

Usually melting point stands for the temperature, or range, at which the solid turns liquid. As a reminder, the IC50 is the concentration at which inhibition is half-maximal. Higher therefore signals a need for much substance. In turn, `CC(=O)N1CCN(c2ccccc2N(CCc2ccccc2)S(=O)(=O)c2ccc3oc(C(=O)O)c(C)c3c2)CC1` [Example F27-S91, 3-methyl-5-(N-(2-(4-acetylpiperazin-1-yl)phenyl)-N-phenethylsulfamoyl)benzofuran-2-carboxylic acid] had a melting point of 196 to 197 °C. Also, the IC50 in data set [1] was 50 to 100 µM.

Consider `CCCOC(=O)N1CCN(c2ccc(N(CCc3ccccc3)S(=O)(=O)c3ccc4oc(C(=O)O)c(C)c4c3)cc2)CC1` [Example F27-S67, 3-methyl-5-(N-(4-(4-(propoxycarbonyl)piperazin-1-yl)phenyl)-N-phenethylsulfamoyl)benzofuran-2-carboxylic acid], for which the melting point was > 380 °C (dec.). Further, the IC50 in data set [1] was in the range of 10 to 50 µM.

`Cc1c(C(=O)O)oc2ccc(S(=O)(=O)N(CCc3ccccc3)c3ccccc3N3CCN(Cc4ccccc4)CC3)cc12` [Example F27-S95] gave a melting point of 161 to 162 °C. This molecule also yielded a half-maximal inhibitory concentration (IC50) in data set [1] of 10 to 50 µM.

In the case of `Cc1c(C(=O)O)oc2ccc(S(=O)(=O)N(CCc3ccccc3)Cc3cccc(-c4ccccc4)c3)cc12` [Example F27-S26, 3-methyl-5-(N-([1,1′-biphenyl]-3-ylmethyl)-N-phenethylsulfamoyl)benzofuran-2-carboxylic acid], the melting point is > 380 °C (dec.). This molecule had an IC50 in data set [1] of 10 to 50 µM.

For the molecule `Cc1ccc(F)cc1CN(CCc1ccccc1)S(=O)(=O)c1ccc2oc(C(=O)O)c(C)c2c1` [Example F27-S61, 3-methyl-5-(N-(2-methyl-5-fluorobenzyl)-N-phenethylsulfamoyl)benzofuran-2-carboxylic acid], the melting point is > 380 °C (dec.). Moreover, the half-inhibitory concentration (IC50) in data set [1] is 10 to 50 µM.

In turn, `Cc1c(C(=O)O)oc2ccc(S(=O)(=O)N(CCc3ccccc3)Cc3ccc(C(=O)O)cc3)cc12` [Example F27-S39, 3-methyl-5-(N-(4-carboxybenzyl)-N-phenethylsulfamoyl)benzofuran-2-carboxylic acid] returned a melting point of 254 to 255 °C. Moreover, the IC50 in data set [1] lay within 50 to 100 µM.

Take `Cc1c(C(=O)O)oc2ccc(S(=O)(=O)N(CCc3ccccc3)Cc3ccc(Cl)cc3F)cc12` [Example F27-S52, 3-methyl-5-(N-(2-fluoro-4-chlorobenzyl)-N-phenethylsulfamoyl)benzofuran-2-carboxylic acid]: the melting point is > 380 °C (dec.). This molecule yielded an IC50 in data set [1] of 10 to 50 µM.

`CC(=O)N1CCN(c2ccc(N(CCc3ccccc3)S(=O)(=O)c3ccc4oc(C(=O)O)c(C)c4c3)cc2)CC1` [Example F27-S68, 3-methyl-5-(N-(4-(4-acetylpiperazin-1-yl)phenyl)-N-phenethylsulfamoyl)benzofuran-2-carboxylic acid] had a melting point of 183 to 184 °C. This molecule registered a half-maximal inhibitory concentration (IC50) in data set [1] of 50 to 100 µM.

Turning to `Cc1cccc(C)c1CN(CCc1ccccc1)S(=O)(=O)c1ccc2oc(C(=O)O)c(C)c2c1` [Example F27-S50, 3-methyl-5-(N-(2,6-dimethylbenzyl)-N-phenethylsulfamoyl)benzofuran-2-carboxylic acid], the melting point was in the range of 211 to 212 °C. The IC50 in data set [1] lay in the range of 0.1 to 10 µM.

In turn, `Cc1c(C(=O)O)oc2ccc(S(=O)(=O)N(CCc3ccccc3)Cc3ccc(F)cc3F)cc12` [Example F27-S51, 3-methyl-5-(N-(2,4-difluorobenzyl)-N-phenethylsulfamoyl)benzofuran-2-carboxylic acid] had a melting point of 155 to 156 °C. In data set [1], the IC50 fell in the range of 10 to 50 µM.

With `Cc1c(C(=O)O)oc2ccc(S(=O)(=O)N(CCc3ccccc3)Cc3ccccc3[N+](=O)[O-])cc12` [Example F27-S19, 3-methyl-5-(N-(2-nitrobenzyl)-N-phenethylsulfamoyl)benzofuran-2-carboxylic acid], the melting point lay in the range of 180 to 181 °C. Moreover, the IC50 in data set [1] lay in the range of 10 to 50 µM.

`Cc1c(C(=O)O)oc2ccc(S(=O)(=O)N(CCc3ccccc3)c3ccccc3N3CCN(S(C)(=O)=O)CC3)cc12` [Example F27-S93, 3-methyl-5-(N-(2-(4-(methylsulfonyl)piperazin-1-yl)phenyl)-N-phenethylsulfamoyl)benzofuran-2-carboxylic acid] gave a melting point of 144 to 145 °C. The IC50 in data set [1] fell in the range of 10 to 50 µM.

For `Cc1c(C(=O)O)oc2ccc(S(=O)(=O)N(CCc3ccccc3)c3ccc(N4CCN(C(=O)c5ccccc5)CC4)cc3)cc12` [Example F27-S69, 3-methyl-5-(N-(4-(4-benzoylpiperazin-1-yl)phenyl)-N-phenethylsulfamoyl)benzofuran-2-carboxylic acid], the melting point was > 380 °C (dec.). In data set [1], this molecule yielded a half-inhibitory concentration (IC50) of 10 to 50 µM.

Turning to `Cc1c(C(=O)O)oc2ccc(S(=O)(=O)N(CCc3ccccc3)Cc3ccc(F)cc3C(F)(F)F)cc12` [Example F27-S57, 3-methyl-5-(N-(2-(trifluoromethyl)-4-fluorobenzyl)-N-phenethylsulfamoyl)benzofuran-2-carboxylic acid], the melting point lay within 156 to 157 °C. The same molecule registered a 50% inhibitory concentration (IC50) in data set [1] of 10 to 50 µM.

`Cc1c(C(=O)O)oc2ccc(S(=O)(=O)N(CCc3ccccc3)Cc3ccc(Cl)cc3Cl)cc12` [Example F27-S60, 3-methyl-5-(N-(2,4-dichlorobenzyl)-N-phenethylsulfamoyl)benzofuran-2-carboxylic acid] displayed a melting point of 177 to 178 °C. In data set [1], this molecule displayed an IC50 of 10 to 50 µM.

On to `Cc1c(C(=O)O)oc2ccc(S(=O)(=O)N(CCc3ccccc3)Cc3ccc(N4CCOCC4)cc3)cc12` [Example F27-S79], for which the melting point is > 380 °C (dec.). Also, in data set [1], the IC50 was 50 to 100 µM.

Take `Cc1c(C(=O)O)oc2ccc(S(=O)(=O)N(CCc3ccccc3)Cc3ccccc3N3CCNCC3)cc12` [Example F27-S97, 3-methyl-5-(N-(2-(piperazin-1-yl)benzyl)-N-phenethylsulfamoyl)benzofuran-2-carboxylic acid]: the melting point fell in the range of 223 to 224 °C. In addition, the IC50 in data set [1] lay in the range of 50 to 100 µM.

For the molecule `Cc1c(C(=O)O)oc2ccc(S(=O)(=O)N(CCc3ccccc3)c3ccc(N4CCN(C(=O)OC(C)(C)C)CC4)c(C(F)(F)F)c3)cc12` [Example F27-S74, 3-methyl-5-(N-(4-(4-(tert-butoxycarbonyl)piperazin-1-yl)-3-(trifluoromethyl)phenyl)-N-phenethylsulfamoyl)benzofuran-2-carboxylic acid], the melting point was 215 to 216 °C. The molecule also showed an IC50 in data set [1] of 0.1 to 10 µM.

As for `Cc1c(C(=O)O)oc2ccc(S(=O)(=O)N(CCc3ccccc3)Cc3ccc(-c4ccccc4)cc3)cc12` [Example F27-S82, 3-methyl-5-(N-([1,1′-biphenyl]-4-ylmethyl)-N-phenethylsulfamoyl)benzofuran-2-carboxylic acid], the melting point is > 380 °C (dec.). In data set [1], the IC50 was 50 to 100 µM.

Consider `Cc1c(C(=O)O)oc2ccc(S(=O)(=O)N(CCc3ccccc3)c3ccc(N4CCN(C(=O)CC(C)(C)C)CC4)cc3)cc12` [Example F27-S66, 3-methyl-5-(N-(4-(4-(3,3-dimethylbutyryl)piperazin-1-yl)phenyl)-N-phenethylsulfamoyl)benzofuran-2-carboxylic acid], for which the melting point was > 380 °C (dec.). Also, the concentration for half-maximal inhibition (IC50) in data set [1] lay in the range of 10 to 50 µM.

Regarding `Cc1c(C(=O)O)oc2ccc(S(=O)(=O)N(CCc3ccccc3)Cc3ccc(C(N)=O)cc3)cc12` [Example F27-S33, 3-methyl-5-(N-(4-carbamoylbenzyl)-N-phenethylsulfamoyl)benzofuran-2-carboxylic acid], the melting point is > 380 °C (dec.). This molecule had a concentration for half-maximal inhibition (IC50) in data set [1] of 50 to 100 µM.

Molecule `Cc1c(C(=O)O)oc2ccc(S(=O)(=O)N(CCc3ccccc3)c3ccccc3N3CC[N+](C)(C)CC3)cc12` [Example F27-S90, 4-(2-((2-carboxy-3-methyl-N-phenethylbenzofuran)-5-sulfonylamino)phenyl)-1,1-dimethylpiperazin-1-ium] yielded a melting point of 246 to 247 °C. This molecule had an IC50 in data set [1] of 50 to 100 µM.

Turning to `Cc1c(C(=O)O)oc2ccc(S(=O)(=O)N(CCc3ccccc3)Cc3cccc(N4CCN(C(=O)OC(C)(C)C)CC4)c3)cc12` [Example F27-S88, 3-methyl-5-(N-(3-(4-(tert-butoxycarbonyl)piperazin-1-yl)benzyl)-N-phenethylsulfamoyl)benzofuran-2-carboxylic acid], the melting point lay in the range of 104 to 105 °C. Also, the IC50 in data set [1] lay within 0.1 to 10 µM.

In the case of `Cc1c(C(=O)O)oc2ccc(S(=O)(=O)N(CCc3ccccc3)c3ccc(N4CCN(C(=O)N(C)C)CC4)cc3)cc12` [Example F27-S71, 3-methyl-5-(N-(4-(4-(dimethylcarbamoyl)piperazin-1-yl)phenyl)-N-phenethylsulfamoyl)benzofuran-2-carboxylic acid], the melting point lay in the range of 192 to 193 °C. The half-maximal inhibitory concentration (IC50) in data set [1] is 50 to 100 µM.

Take `Cc1c(C(=O)O)oc2ccc(S(=O)(=O)N(CCc3ccccc3)Cc3ccc(F)cc3)cc12` [Example F27-S28, 3-methyl-5-(N-(4-fluorobenzyl)-N-phenethylsulfamoyl)benzofuran-2-carboxylic acid]: the melting point lay in the range of 188 to 189 °C. In addition, the IC50 in data set [1] was in the range of 10 to 50 µM.

In the case of `Cc1c(C(=O)O)oc2ccc(S(=O)(=O)N(CCc3ccccc3)Cc3ccc(C(=O)c4ccccc4)cc3)cc12` [Example F27-S85, 3-methyl-5-(N-(4-benzoylbenzyl)-N-phenethylsulfamoyl)benzofuran-2-carboxylic acid], the melting point is 192 to 193 °C. In addition, the 50% inhibitory concentration (IC50) in data set [1] lay in the range of 10 to 50 µM.

(Values after patent US20240239775A1, “FXR REGULATOR, PREPARATION METHOD THEREFOR, PHARMACEUTICAL COMPOSITION THEREOF AND USE THEREOF” (QINGDAO RUIJI MEDICAL TECHNOLOGY CO., LTD., priority 2021, published 2024).)
